Data set [1] in a line: Hydrolysis in buffer solutions, release monitored by HPLC. It counts as physicochemical. The note with it: for half-life at 1 mg/ml: 1 mg/ml in acetonitrile 80% / buffer solution 20%. The procedure: The compound is put into an acid medium (citrate buffer for pH 4.3 and […] buffer for pH 7.3) and release of CI-994 is monitored by HPLC. The hydrolysis of the compounds of the invention was carried out in buffer solutions (citrate buffer for pH 4.3 and […] for pH 7.3) at pH=4.3 and at pH=7.3. The concentration of the samples is 1 mg/ml in the solution: acetonitrile at 80% and buffer solution at 20%. […] In some cases the measurements were prolonged for 2 or 3 weeks, or even a month.

A further data set deals with HDAC. Put plainly: BRET measurement of histone acetylation / HDAC inhibition in Met-5A cells. It counts as cell-based. The procedure: Cellular model: Met-5A cells (ATCC)
Seed 200000 cells per well of a 6-well plate in 2 ml of RPMI 10% FCS penicillin/streptomycin and glutamine.
D1: Transfection: phRluc-C1 BrD+pEYFP-C1 histone H3
600 ng of phRluc-C1 BrD+1500 ng of pEYFP-C1 histone H3 in 100 μl of crude RPMI.
After 6 h at 37° C., begin the treatments by adding 20 μl of treatment medium (RPMI 10% FCS penicillin, streptomycin and L-glutamine) comprising the test compounds at a ten-fold concentration.
Add 5 μl per well of coelenterazine h (Interchim) at 25 μM.
Parameters: Reading at 485 nm for 1 second and then reading at 530 nm for 1 second.
((value 530 nm phRluc-C1 BrD+pEYFP-C1 histone H3/value 480 nm phRluc-C1 BrD+pEYFP-C1 histone H3)-(value 530 nm phRluc-C1 BrD/value 480 nm phRluc-C1 BrD))×1000
Unit: milli BRET unit (mBu)
These experiments make it possible to evaluate the release of the HDAC inhibitors (HDI) in the live cells.

Three molecules from patent US20140219925A1, “POLYMER PARTICLES OR NANO-VECTORS AND USE THEREOF AS A DRUG AND/OR DIAGNOSTIC AGENT” (INSERM (Institut National de la Sante et de la Recherche …, priority 2011, published 2014) can be followed below.

Where “and” joins values, the source holds several entries; their conditions need not be identical. Identical values can stand only once. Like-named read-outs stand apart in the source and are kept apart here.

Turning to “N^1-((1-(3,6,9,12-tetraoxapentadec-14-ynyl)-1H-1,2,3-triazol-4-yl)bis(4-fluorophenyl)methoxy)phenyl [Compound 21g]”, the time without hydrolysis result in data set [1] (pH 7.3) is given as “at least 1 month”.

Consider `CC(=O)Nc1ccc(C(=O)Nc2ccccc2N)cc1` [CI-994, reference compound], for which the EC50 in the data set on HDAC (read-out: EC50 (BRET), average value±standard deviation of three independent experiments) came out at 0.86 ± 1.14 µM.

As for `C#CCOCCOCCOCCOCCn1cc(C(Nc2ccccc2NC(=O)c2ccc(NC(C)=O)cc2)(c2ccccc2)c2ccccc2)nn1` [Compound 9c, N-(2-((1-(3,6,9,12-tetraoxapentadec-14-ynyl)-1H-1,2,3-triazol-4-yl)diphenylmethylamino)phenyl)-4-acetamidobenzamide], the EC50 with HDAC (average value±standard deviation of three independent experiments, read-out: EC50 (BRET)) is 7.17 µM and 6.2 µM. The half-life at 1 mg/ml in data set [1] (pH 4.3 citrate buffer, read-out: t1/2 pH 4.3) was 0.5 h; in data set [1] (pH 7.3 Trisma buffer, read-out: t1/2 pH 7.3 (converted)) it was 86.4 h.
